Source: ChEMBL document CHEMBL6178017, “Intercepting the Downstream of the Estrogen Receptor Signaling Pathway: Discovery of a Potent and Efficient SRC-3 PROTAC Degrader for Overcoming Endocrine Resistance Breast Cancer” (J Med Chem, 2025)

biological target: T1, von Hippel-Lindau disease tumor suppressor/Nuclear receptor coactivator 3 (Homo sapiens) (UniProt Q9Y6Q9+P40337); assay: PROTAC activity at VHL/SRC-3 in human MCF7 cells assessed as induction of SRC-3 degradation at 1 uM incubated for 24 hrs by immunoblot analysis relative to control; format: cell-based
T1 sequence (P40337 whole entry, looked up): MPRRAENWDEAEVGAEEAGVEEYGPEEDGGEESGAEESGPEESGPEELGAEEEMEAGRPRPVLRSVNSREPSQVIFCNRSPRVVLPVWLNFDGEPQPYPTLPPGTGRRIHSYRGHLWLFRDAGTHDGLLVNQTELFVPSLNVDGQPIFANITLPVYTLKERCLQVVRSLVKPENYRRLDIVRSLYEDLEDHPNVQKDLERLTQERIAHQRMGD
T1 sequence (Q9Y6Q9 whole entry, looked up): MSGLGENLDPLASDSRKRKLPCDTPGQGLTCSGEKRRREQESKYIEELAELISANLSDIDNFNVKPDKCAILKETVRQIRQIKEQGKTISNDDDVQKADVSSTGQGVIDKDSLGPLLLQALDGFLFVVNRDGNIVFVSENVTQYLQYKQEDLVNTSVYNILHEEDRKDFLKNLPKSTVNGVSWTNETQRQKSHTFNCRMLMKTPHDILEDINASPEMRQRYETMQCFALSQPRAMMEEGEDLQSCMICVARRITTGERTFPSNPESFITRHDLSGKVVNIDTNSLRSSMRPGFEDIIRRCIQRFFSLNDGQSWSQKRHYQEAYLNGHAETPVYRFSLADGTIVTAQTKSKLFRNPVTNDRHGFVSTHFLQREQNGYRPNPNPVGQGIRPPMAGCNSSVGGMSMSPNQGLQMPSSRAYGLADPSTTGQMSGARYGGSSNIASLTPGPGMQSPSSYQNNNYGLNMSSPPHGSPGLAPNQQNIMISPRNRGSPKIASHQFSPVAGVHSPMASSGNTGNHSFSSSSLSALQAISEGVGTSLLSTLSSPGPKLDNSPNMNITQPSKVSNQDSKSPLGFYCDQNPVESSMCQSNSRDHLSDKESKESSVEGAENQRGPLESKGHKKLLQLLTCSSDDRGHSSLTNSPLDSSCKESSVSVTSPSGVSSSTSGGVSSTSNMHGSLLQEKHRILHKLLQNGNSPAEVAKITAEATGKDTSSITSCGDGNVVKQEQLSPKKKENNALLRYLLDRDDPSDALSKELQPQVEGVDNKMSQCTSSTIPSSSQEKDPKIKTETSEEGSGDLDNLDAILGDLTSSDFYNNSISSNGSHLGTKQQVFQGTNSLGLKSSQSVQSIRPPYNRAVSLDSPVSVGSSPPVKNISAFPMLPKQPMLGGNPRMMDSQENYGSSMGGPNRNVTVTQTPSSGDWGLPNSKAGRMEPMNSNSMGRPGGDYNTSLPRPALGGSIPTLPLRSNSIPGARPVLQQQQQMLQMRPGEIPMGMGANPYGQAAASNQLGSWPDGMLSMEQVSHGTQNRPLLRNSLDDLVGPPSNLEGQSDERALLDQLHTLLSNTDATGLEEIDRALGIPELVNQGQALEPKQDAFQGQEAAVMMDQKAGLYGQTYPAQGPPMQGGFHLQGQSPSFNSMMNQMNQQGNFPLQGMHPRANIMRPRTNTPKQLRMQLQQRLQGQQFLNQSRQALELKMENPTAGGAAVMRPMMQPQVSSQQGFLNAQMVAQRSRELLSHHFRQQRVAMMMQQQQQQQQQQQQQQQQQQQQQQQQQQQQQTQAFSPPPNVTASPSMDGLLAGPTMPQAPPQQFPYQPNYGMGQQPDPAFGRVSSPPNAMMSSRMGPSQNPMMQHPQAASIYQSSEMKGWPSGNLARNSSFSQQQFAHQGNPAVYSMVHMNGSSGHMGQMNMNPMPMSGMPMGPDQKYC

Compared with `C/C(=N\Nc1nc2ccccc2n1CCNC(=O)CCCCCCCCCN[C@H](C(=O)N1C[C@H](O)C[C@H]1C(=O)N[C@@H](C)c1ccc(-c2scnc2C)cc1)C(C)(C)C)c1ccccn1`, `C/C(=N\Nc1nc2ccccc2n1CCNC(=O)CCCCCCCCCCN[C@H](C(=O)N1C[C@H](O)C[C@H]1C(=O)N[C@@H](C)c1ccc(-c2scnc2C)cc1)C(C)(C)C)c1ccccn1` is lower in Activity: 63% for the first, 62% for the second.

First: C/C(=N\Nc1nc2ccccc2n1CCNC(=O)CCCCCCCN[C@H](C(=O)N1C[C@H](O)C[C@H]1C(=O)N[C@@H](C)c1ccc(-c2scnc2C)cc1)C(C)(C)C)c1ccccn1
Second: C/C(=N\Nc1nc2ccccc2n1CCNC(=O)CCCCCCCCN[C@H](C(=O)N1C[C@H](O)C[C@H]1C(=O)N[C@@H](C)c1ccc(-c2scnc2C)cc1)C(C)(C)C)c1ccccn1
The Activity of the first is lower: 56% for the first, 68% for the second.

First: C/C(=N\Nc1nc2ccccc2n1CCNC(=O)CCCCCCN[C@H](C(=O)N1C[C@H](O)C[C@H]1C(=O)N[C@@H](C)c1ccc(-c2scnc2C)cc1)C(C)(C)C)c1ccccn1
Second: C/C(=N\Nc1nc2ccccc2n1CC1CCN(CC(=O)N[C@H](C(=O)N2C[C@H](O)C[C@H]2C(=O)N[C@@H](C)c2ccc(-c3scnc3C)cc2)C(C)(C)C)CC1)c1ccccn1
The Activity of the first is higher: 62% for the first, 21% for the second.

biological target: T1, von Hippel-Lindau disease tumor suppressor/Nuclear receptor coactivator 3 (Homo sapiens); assay: PROTAC activity at VHL/SRC-3 in human MCF7 cells assessed as induction of […] degradation at 1 uM incubated for 24 hrs by immunoblot analysis relative to control; format: cell-based

Compared with `C/C(=N\Nc1nc2ccccc2n1CCNC(=O)CCCCCCCCCN[C@H](C(=O)N1C[C@H](O)C[C@H]1C(=O)N[C@@H](C)c1ccc(-c2scnc2C)cc1)C(C)(C)C)c1ccccn1`, `C/C(=N\Nc1nc2ccccc2n1CCNC(=O)CCCCCCCCCCN[C@H](C(=O)N1C[C@H](O)C[C@H]1C(=O)N[C@@H](C)c1ccc(-c2scnc2C)cc1)C(C)(C)C)c1ccccn1` is higher in Activity: 61% for the first, 62% for the second.

Going from `C/C(=N\Nc1nc2ccccc2n1CCNC(=O)CCCCCCCN[C@H](C(=O)N1C[C@H](O)C[C@H]1C(=O)N[C@@H](C)c1ccc(-c2scnc2C)cc1)C(C)(C)C)c1ccccn1` to `C/C(=N\Nc1nc2ccccc2n1CCNC(=O)CCCCCCCCN[C@H](C(=O)N1C[C@H](O)C[C@H]1C(=O)N[C@@H](C)c1ccc(-c2scnc2C)cc1)C(C)(C)C)c1ccccn1`, the Activity rises from 38% to 65%.

Compared with `C/C(=N\Nc1nc2ccccc2n1CCNC(=O)CCCCCCN[C@H](C(=O)N1C[C@H](O)C[C@H]1C(=O)N[C@@H](C)c1ccc(-c2scnc2C)cc1)C(C)(C)C)c1ccccn1`, `C/C(=N\Nc1nc2ccccc2n1CC1CCN(CC(=O)N[C@H](C(=O)N2C[C@H](O)C[C@H]2C(=O)N[C@@H](C)c2ccc(-c3scnc3C)cc2)C(C)(C)C)CC1)c1ccccn1` is lower in Activity: 43% for the first, 10% for the second.

tested on: MCF7; assay: Antiproliferative activity against human MCF7 cells assessed as inhibition of cell growth by CCK8 assay; format: functional, cell-based

`C/C(=N\Nc1nc2ccccc2n1CCNC(=O)CCCCCCCCCN[C@H](C(=O)N1C[C@H](O)C[C@H]1C(=O)N[C@@H](C)c1ccc(-c2scnc2C)cc1)C(C)(C)C)c1ccccn1` and `C/C(=N\Nc1nc2ccccc2n1CCNC(=O)CCCCCCCCCCN[C@H](C(=O)N1C[C@H](O)C[C@H]1C(=O)N[C@@H](C)c1ccc(-c2scnc2C)cc1)C(C)(C)C)c1ccccn1` are within 1.5-fold of each other in IC50: 0.09 µM for the first, 0.08 µM for the second.

Going from `C/C(=N\Nc1nc2ccccc2n1CCNC(=O)CCCCCCCN[C@H](C(=O)N1C[C@H](O)C[C@H]1C(=O)N[C@@H](C)c1ccc(-c2scnc2C)cc1)C(C)(C)C)c1ccccn1` to `C/C(=N\Nc1nc2ccccc2n1CCNC(=O)CCCCCCCCN[C@H](C(=O)N1C[C@H](O)C[C@H]1C(=O)N[C@@H](C)c1ccc(-c2scnc2C)cc1)C(C)(C)C)c1ccccn1`, the IC50 falls from 0.52 µM to 0.06 µM (8.7-fold). The second is the more potent here.

`C/C(=N\Nc1nc2ccccc2n1CCNC(=O)CCCCCCN[C@H](C(=O)N1C[C@H](O)C[C@H]1C(=O)N[C@@H](C)c1ccc(-c2scnc2C)cc1)C(C)(C)C)c1ccccn1` and `C/C(=N\Nc1nc2ccccc2n1CC1CCN(CC(=O)N[C@H](C(=O)N2C[C@H](O)C[C@H]2C(=O)N[C@@H](C)c2ccc(-c3scnc3C)cc2)C(C)(C)C)CC1)c1ccccn1` are within 1.5-fold of each other in IC50: 0.47 µM for the first, 0.69 µM for the second.

tested on: not listed separately; assay: Antiproliferative activity against tamoxifen-resistant human LCC2 cells assessed as inhibition of cell growth by CCK8 assay; format: functional, cell-based

`C/C(=N\Nc1nc2ccccc2n1CCNC(=O)CCCCCCCCCN[C@H](C(=O)N1C[C@H](O)C[C@H]1C(=O)N[C@@H](C)c1ccc(-c2scnc2C)cc1)C(C)(C)C)c1ccccn1` and `C/C(=N\Nc1nc2ccccc2n1CCNC(=O)CCCCCCCCCCN[C@H](C(=O)N1C[C@H](O)C[C@H]1C(=O)N[C@@H](C)c1ccc(-c2scnc2C)cc1)C(C)(C)C)c1ccccn1` are within 1.5-fold of each other in IC50: 1.11 µM for the first, 1.06 µM for the second.

Compared with `C/C(=N\Nc1nc2ccccc2n1CCNC(=O)CCCCCCCN[C@H](C(=O)N1C[C@H](O)C[C@H]1C(=O)N[C@@H](C)c1ccc(-c2scnc2C)cc1)C(C)(C)C)c1ccccn1`, `C/C(=N\Nc1nc2ccccc2n1CCNC(=O)CCCCCCCCN[C@H](C(=O)N1C[C@H](O)C[C@H]1C(=O)N[C@@H](C)c1ccc(-c2scnc2C)cc1)C(C)(C)C)c1ccccn1` is 2.6-fold lower in IC50: 1.94 µM for the first, 0.75 µM for the second. The second is the more potent here.

`C/C(=N\Nc1nc2ccccc2n1CCNC(=O)CCCCCCN[C@H](C(=O)N1C[C@H](O)C[C@H]1C(=O)N[C@@H](C)c1ccc(-c2scnc2C)cc1)C(C)(C)C)c1ccccn1` and `C/C(=N\Nc1nc2ccccc2n1CC1CCN(CC(=O)N[C@H](C(=O)N2C[C@H](O)C[C@H]2C(=O)N[C@@H](C)c2ccc(-c3scnc3C)cc2)C(C)(C)C)CC1)c1ccccn1` are within 1.5-fold of each other in IC50: 3.7 µM for the first, 2.76 µM for the second.

tested on: MCF7; assay: Antiproliferative activity against human MCF7 cells harboring ER-alpha D538G mutant assessed as inhibition of cell growth by CCK8 assay; format: functional, cell-based

`C/C(=N\Nc1nc2ccccc2n1CCNC(=O)CCCCCCCCCN[C@H](C(=O)N1C[C@H](O)C[C@H]1C(=O)N[C@@H](C)c1ccc(-c2scnc2C)cc1)C(C)(C)C)c1ccccn1` and `C/C(=N\Nc1nc2ccccc2n1CCNC(=O)CCCCCCCCCCN[C@H](C(=O)N1C[C@H](O)C[C@H]1C(=O)N[C@@H](C)c1ccc(-c2scnc2C)cc1)C(C)(C)C)c1ccccn1` are within 1.5-fold of each other in IC50: 0.35 µM for the first, 0.41 µM for the second.

`C/C(=N\Nc1nc2ccccc2n1CCNC(=O)CCCCCCCN[C@H](C(=O)N1C[C@H](O)C[C@H]1C(=O)N[C@@H](C)c1ccc(-c2scnc2C)cc1)C(C)(C)C)c1ccccn1` and `C/C(=N\Nc1nc2ccccc2n1CCNC(=O)CCCCCCCCN[C@H](C(=O)N1C[C@H](O)C[C@H]1C(=O)N[C@@H](C)c1ccc(-c2scnc2C)cc1)C(C)(C)C)c1ccccn1` are within 1.5-fold of each other in IC50: 0.45 µM for the first, 0.36 µM for the second.

Going from `C/C(=N\Nc1nc2ccccc2n1CCNC(=O)CCCCCCN[C@H](C(=O)N1C[C@H](O)C[C@H]1C(=O)N[C@@H](C)c1ccc(-c2scnc2C)cc1)C(C)(C)C)c1ccccn1` to `C/C(=N\Nc1nc2ccccc2n1CC1CCN(CC(=O)N[C@H](C(=O)N2C[C@H](O)C[C@H]2C(=O)N[C@@H](C)c2ccc(-c3scnc3C)cc2)C(C)(C)C)CC1)c1ccccn1`, the IC50 falls from 1.04 µM to 0.69 µM (1.5-fold).

tested on: MCF7; assay: Antiproliferative activity against human MCF7 cells harboring ER-alpha Y537S mutant assessed as inhibition of cell growth by CCK8 assay; format: functional, cell-based

`C/C(=N\Nc1nc2ccccc2n1CCNC(=O)CCCCCCCCCN[C@H](C(=O)N1C[C@H](O)C[C@H]1C(=O)N[C@@H](C)c1ccc(-c2scnc2C)cc1)C(C)(C)C)c1ccccn1` and `C/C(=N\Nc1nc2ccccc2n1CCNC(=O)CCCCCCCCCCN[C@H](C(=O)N1C[C@H](O)C[C@H]1C(=O)N[C@@H](C)c1ccc(-c2scnc2C)cc1)C(C)(C)C)c1ccccn1` are within 1.5-fold of each other in IC50: 0.13 µM for the first, 0.16 µM for the second.

First: C/C(=N\Nc1nc2ccccc2n1CCNC(=O)CCCCCCCN[C@H](C(=O)N1C[C@H](O)C[C@H]1C(=O)N[C@@H](C)c1ccc(-c2scnc2C)cc1)C(C)(C)C)c1ccccn1
Second: C/C(=N\Nc1nc2ccccc2n1CCNC(=O)CCCCCCCCN[C@H](C(=O)N1C[C@H](O)C[C@H]1C(=O)N[C@@H](C)c1ccc(-c2scnc2C)cc1)C(C)(C)C)c1ccccn1
The IC50 of the first is 2.4-fold higher: 0.36 µM for the first, 0.15 µM for the second. The second is the more potent here.

`C/C(=N\Nc1nc2ccccc2n1CCNC(=O)CCCCCCN[C@H](C(=O)N1C[C@H](O)C[C@H]1C(=O)N[C@@H](C)c1ccc(-c2scnc2C)cc1)C(C)(C)C)c1ccccn1` and `C/C(=N\Nc1nc2ccccc2n1CC1CCN(CC(=O)N[C@H](C(=O)N2C[C@H](O)C[C@H]2C(=O)N[C@@H](C)c2ccc(-c3scnc3C)cc2)C(C)(C)C)CC1)c1ccccn1` are within 1.5-fold of each other in IC50: 0.83 µM for the first, 0.94 µM for the second.

tested on: MCF-10A; assay: Cytotoxicity against human MCF-10A cells assessed as cell growth by CCK-8 assay; format: toxicity, cell-based

For `C/C(=N\Nc1nc2ccccc2n1CCNC(=O)CCCCCCCCCN[C@H](C(=O)N1C[C@H](O)C[C@H]1C(=O)N[C@@H](C)c1ccc(-c2scnc2C)cc1)C(C)(C)C)c1ccccn1`, the Activity was “Non-toxic”.
In the case of `C/C(=N\Nc1nc2ccccc2n1CCNC(=O)CCCCCCCCCCN[C@H](C(=O)N1C[C@H](O)C[C@H]1C(=O)N[C@@H](C)c1ccc(-c2scnc2C)cc1)C(C)(C)C)c1ccccn1`, the Activity is reported as “Non-toxic”.
With `C/C(=N\Nc1nc2ccccc2n1CCNC(=O)CCCCCCCN[C@H](C(=O)N1C[C@H](O)C[C@H]1C(=O)N[C@@H](C)c1ccc(-c2scnc2C)cc1)C(C)(C)C)c1ccccn1` the Activity was “Non-toxic”.
In the case of `C/C(=N\Nc1nc2ccccc2n1CCNC(=O)CCCCCCCCN[C@H](C(=O)N1C[C@H](O)C[C@H]1C(=O)N[C@@H](C)c1ccc(-c2scnc2C)cc1)C(C)(C)C)c1ccccn1`, the Activity is reported as “Non-toxic”.
With `C/C(=N\Nc1nc2ccccc2n1CCNC(=O)CCCCCCN[C@H](C(=O)N1C[C@H](O)C[C@H]1C(=O)N[C@@H](C)c1ccc(-c2scnc2C)cc1)C(C)(C)C)c1ccccn1` the Activity was “Non-toxic”.
With `C/C(=N\Nc1nc2ccccc2n1CC1CCN(CC(=O)N[C@H](C(=O)N2C[C@H](O)C[C@H]2C(=O)N[C@@H](C)c2ccc(-c3scnc3C)cc2)C(C)(C)C)CC1)c1ccccn1` the Activity was “Non-toxic”.

tested on: LNCaP; assay: Antiproliferative activity against human LNCaP cells assessed as inhibition of cell growth by CCK-8 assay; format: functional, cell-based

For `C/C(=N\Nc1nc2ccccc2n1CCNC(=O)CCCCCCCCN[C@H](C(=O)N1C[C@H](O)C[C@H]1C(=O)N[C@@H](C)c1ccc(-c2scnc2C)cc1)C(C)(C)C)c1ccccn1`, the IC50 was 1.43 µM.
